Results published in paper PMC3020594 (International journal of biological macromolecules, 2010).
Like-named read-outs stand apart in the source and are kept apart here.

Biological target: human cytidine deaminase (CDA) (Homo sapiens, UniProt P32320, Y33G)
Assay: biochemical
Type: biochemical

Chain of human cytidine deaminase (CDA) (P32320 whole entry Y33G): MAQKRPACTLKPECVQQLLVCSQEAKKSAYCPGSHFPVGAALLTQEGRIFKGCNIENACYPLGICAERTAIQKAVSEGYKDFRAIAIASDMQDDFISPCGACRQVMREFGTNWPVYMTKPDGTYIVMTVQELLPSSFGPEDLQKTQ

Molecule: 6-[3,5(cytidyl)acryloylamino] hexanoic acid [CV6]
- Ki (read-out: Y33G): 3.4 µM

Molecule: O=c1ncc(F)cn1[C@@H]1O[C@H](CO)[C@@H](O)[C@H]1O [5-FZEB, 5-Fluorozebularine]
- Ki: 0.2 µM
